Measured values as given in US8637525B2, “Compounds for the reduction of beta-amyloid production” (Bristol-Myers Squibb Company, priority 2009, dated 2014).
pIC50: −log10 of the molar value. Like-named read-outs stand apart in the source and are kept apart here.

Test system: Aβ1-42 production
Assay: Cellular assay for inhibition of Aβ1-42 production (H4 APP751 SWE clone 8.20)
Format: cell-based
Conditions: H4 APP751 SWE clone 8.20 cells, 19 h incubation
Outline: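 Secreted peptide was quantified with a two-antibody homogeneous format combining Wallac-labelled 565, which recognises the Aβ42 end, and APC-labelled 26D6 at 0.8 and 75 ng/well respectively. Antibodies were diluted in 40 mM Tris-HCl, pH 7.4, 0.2% BSA and left overnight at 4 °C after a 19 h compound incubation.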

[1] = 19 h, class symbols, read-out: Activity Rating (Aβ42 cellular IC50)
[2] = class symbols, read-out: Activity Rating (Aβ42 cellular IC50)
[3] = read-out: Activity Rating (Aβ42 cellular IC50), numeric value
[4] = 19 h, read-out: Activity Rating (Aβ42 cellular IC50), numeric value

Row | Structure (SMILES) | pIC50 [1] | pIC50 [2] | other results
1 | CNc1nc(Nc2ccc(-n3ncnc3C)c(F)c2)nc2c1COCC2c1ccc(Cl)cc1 (single isomer, unassigned) [Example 69B, 8-(4-chlorophenyl)-N^2-(3-fluoro-4-(5-methyl-1H-1,2,4-triazol-1-yl)phenyl)-N^4-methyl-7,8-dihydro-5H-pyrano[4,3-d]pyrimidine-2,4-diamine] |  | 6.00 to 7.00 | 
2 | CCNc1nc(Nc2ccc(-n3cnc(C)n3)c(F)c2)nc2c1CN(CC(F)F)CC2c1ccccc1 (centres unmarked) [Example 195A, 6-(2,2-difluoroethyl)-N4-ethyl-N2-(3-fluoro-4-(3-methyl-1H-1,2,4-triazol-1-yl)phenyl)-8-phenyl-5,6,7,8-tetrahydropyrido[4,3-d]pyrimidine-2,4-diamine] |  |  | pIC50 [3]: 7.59
3 | CCNc1nc(Nc2ccc(-n3cnc(C)n3)c(F)c2)nc2c1CN(C)CC2c1ccccc1 (centres unmarked) [Example 152, N4-ethyl-N2-(3-fluoro-4-(3-methyl-1H-1,2,4-triazol-1-yl)phenyl)-6-methyl-8-phenyl-5,6,7,8-tetrahydropyrido[4,3-d]pyrimidine-2,4-diamine] | 7.00 to 8.00 |  | 
4 | CCNc1nc(Nc2ccc(-n3cnc(Cl)c3)c(OC)c2)nc2c1CCN(S(C)(=O)=O)C2c1ccc(F)cc1 (centres unmarked) [Example 168A, N2-(4-(4-chloro-1H-imidazol-1-yl)-3-methoxyphenyl)-N4-ethyl-8-(4-fluorophenyl)-7-(methylsulfonyl)-5,6,7,8-tetrahydropyrido[3,4-d]pyrimidine-2,4-diamine] | 8.00 to 8.82 |  | 
5 | CNc1nc(Nc2ccc(OC(F)(F)F)cc2)nc2c1CCC2c1ccccc1 (centres unmarked) [Example 236, N4-methyl-7-phenyl-N2-(4-(trifluoromethoxy)phenyl)-6,7-dihydro-5H-cyclopenta[d]pyrimidine-2,4-diamine] | < 6.00 |  | 
6 | COc1cc(Nc2nc3c(c(N4CC[C@@H](F)C4)n2)CCC3c2ccc(F)cc2)ccc1-n1cnc(Cl)c1 (single isomer, unassigned) [Example 38A] |  |  | pIC50 [4]: 7.92
7 | COc1cc(Nc2nc3c(c(N4CCC[C@@H]4C)n2)COC3c2ccc(F)cc2)ccc1-n1cnc(Cl)c1 (single isomer, unassigned) [Example 74A] | 7.00 to 8.00 |  | 
8 | CNc1nc(Nc2nc3cc(C#N)ccc3[nH]2)nc2c1CCC2c1ccccc1 (centres unmarked) [Example 232, 2-(4-(methylamino)-7-phenyl-6,7-dihydro-5H-cyclopenta[d]pyrimidin-2-ylamino)-1H-benzo[d]imidazole-5-carbonitrile] | < 6.00 |  | 
9 | CNc1nc(Nc2ccc(-n3cnc(C)n3)c(OC)c2)nc2c1COCC2c1ccc(F)cc1 (centres unmarked) [Example 54A, 8-(4-fluorophenyl)-N2-(3-methoxy-4-(3-methyl-1H-1,2,4-triazol-1-yl)phenyl)-N4-methyl-7,8-dihydro-5H-pyrano[4,3-d]pyrimidine-2,4-diamine] |  | 7.00 to 8.00 | 
10 | CCNc1nc(Nc2ccc(-n3cnc(Cl)c3)c(OC)c2)nc2c1COCC2c1cc(F)cc(F)c1 (centres unmarked) [Example 112B, N2-(4-(4-chloro-1H-imidazol-1-yl)-3-methoxyphenyl)-8-(3,5-difluorophenyl)-N4-ethyl-7,8-dihydro-5H-pyrano[4,3-d]pyrimidine-2,4-diamine] |  | 7.00 to 8.00 | 
11 | CNc1nc(Nc2ccc(-n3cnc(Cl)c3)c(OC)c2)nc2c1CN(S(C)(=O)=O)CC2c1ccc(F)cc1 (centres unmarked) [Example 154, N2-(4-(4-chloro-1H-imidazol-1-yl)-3-methoxyphenyl)-8-(4-fluorophenyl)-N4-methyl-6-(methylsulfonyl)-5,6,7,8-tetrahydropyrido[4,3-d]pyrimidine-2,4-diamine] |  | 7.00 to 8.00 | 
12 | CCNc1nc(Nc2ccc(-n3cnc(Cl)c3)c(OC)c2)nc2c1CCN(CC)C2c1ccc(F)cc1 (centres unmarked) [Example 169, N2-(4-(4-chloro-1H-imidazol-1-yl)-3-methoxyphenyl)-N4,7-diethyl-8-(4-fluorophenyl)-5,6,7,8-tetrahydropyrido[3,4-d]pyrimidine-2,4-diamine] |  | 7.00 to 8.00 | 
13 | CNc1nc(Nc2ccc(-n3ncnc3C)c(F)c2)nc2c1CCOC2c1ccccc1 (centres unmarked) [Example 87, N2-(3-fluoro-4-(5-methyl-1H-1,2,4-triazol-1-yl)phenyl)-N4-methyl-8-phenyl-6,8-dihydro-5H-pyrano[3,4-d]pyrimidine-2,4-diamine] |  |  | pIC50 [4]: 7.22
14 | CNc1nc(Nc2ccc(-n3cnc(Cl)c3)c(OC)c2)nc2c1/C(=N/OC)CC2c1ccccc1 (centres unmarked) [Example 201A, (E)-2-(4-(4-chloro-1H-imidazol-1-yl)-3-methoxyphenylamino)-4-(methylamino)-7-phenyl-6,7-dihydro-5H-cyclopenta[d]pyrimidin-5-one O-methyl oxime] |  |  | pIC50 [3]: 8.00
15 | CNc1nc(Nc2ccc(-n3cnc(C)n3)c(F)c2)nc2c1CN(S(=O)(=O)C1CC1)CC2c1ccccc1 (centres unmarked) [Example 141A, 6-(cyclopropylsulfonyl)-N2-(3-fluoro-4-(3-methyl-1H-1,2,4-triazol-1-yl)phenyl)-N4-methyl-8-phenyl-5,6,7,8-tetrahydropyrido[4,3-d]pyrimidine-2,4-diamine] |  | 8.00 to 8.82 | 
16 | CNc1nc(Nc2ccc(-n3cnc(Cl)c3)c(OC)c2)nc2c1CCC2c1ccc(F)c(F)c1 (single isomer, unassigned) [Example 96B, N^2-(4-(4-chloro-1H-imidazol-1-yl)-3-methoxyphenyl)-7-(3,4-difluorophenyl)-N^4-methyl-6,7-dihydro-5H-cyclopenta[d]pyrimidine-2,4-diamine] |  |  | pIC50 [4]: 8.34
17 | CNc1nc(Nc2ccccc2C#N)nc2c1CCC2c1ccccc1 (centres unmarked) [Example 228, 2-(4-(methylamino)-7-phenyl-6,7-dihydro-5H-cyclopenta[d]pyrimidin-2-ylamino)benzonitrile] | < 6.00 |  | 
18 | CNc1nc(Nc2ccc(-n3cnc(C)n3)c(OC)c2)nc2c1CC[C@H]2c1ccccc1OC (single isomer, unassigned) [Example 266A] | 7.00 to 8.00 |  | 
19 | CCNc1nc(Nc2ccc(-n3cnc(Cl)c3)c(OC)c2)nc2c1COCC2c1ccc(F)cc1 (centres unmarked) [Example 56A, N2-(4-(4-chloro-1H-imidazol-1-yl)-3-methoxyphenyl)-N4-ethyl-8-(4-fluorophenyl)-7,8-dihydro-5H-pyrano[4,3-d]pyrimidine-2,4-diamine] |  | 8.00 to 8.82 | 
20 | CNc1nc(Nc2ccc3occc3c2)nc2c1CCC2c1ccccc1 (centres unmarked) [Example 250, N2-(benzofuran-5-yl)-N4-methyl-7-phenyl-6,7-dihydro-5H-cyclopenta[d]pyrimidine-2,4-diamine] | < 6.00 |  | 

Further lines, with some results ahead:

Row | pIC50 [1] | pIC50 [2] | Structure (SMILES) | other results
21 | 8.00 to 8.82 |  | CCNc1nc(Nc2ccc(-n3cnc(Cl)c3)c(OC)c2)nc2c1CN(C(C)=O)CC2c1ccccc1 (centres unmarked) [Example 137A, 1-(2-(4-(4-chloro-1H-imidazol-1-yl)-3-methoxyphenylamino)-4-(ethylamino)-8-phenyl-7,8-dihydropyrido[4,3-d]pyrimidin-6(5H)-yl)ethanone] | 
22 |  | 7.00 to 8.00 | CCC1CCCN1c1nc(Nc2ccc(-n3cnc(Cl)c3)c(OC)c2)nc2c1CCC2c1ccc(F)cc1 (single isomer, unassigned) [Example 24A, N-(4-(4-chloro-1H-imidazol-1-yl)-3-methoxyphenyl)-4-(2-ethylpyrrolidin-1-yl)-7-(4-fluorophenyl)-6,7-dihydro-5H-cyclopenta[d]pyrimidin-2-amine] | 
23 | 8.00 to 8.82 |  | COc1cc(Nc2nc3c(c(N(C)C)n2)CCC3c2ccccc2)ccc1-n1cnc(Cl)c1 (centres unmarked) [Example 4, N^2-(4-(4-Chloro-1H-imidazol-1-yl)-3-methoxyphenyl)-N^4,N^4-dimethyl-7-phenyl-6,7-dihydro-5H-cyclopenta[d]pyrimidine-2,4-diamine] | 
24 | 7.00 to 8.00 |  | COc1cc(Nc2nc3c(c(N4CC(C)(C#N)C4)n2)CCC3c2ccc(F)cc2)ccc1-n1cnc(Cl)c1 (centres unmarked) [Example 186, 1-(2-(4-(4-chloro-1H-imidazol-1-yl)-3-methoxyphenylamino)-7-(4-fluorophenyl)-6,7-dihydro-5H-cyclopenta[d]pyrimidin-4-yl)-3-methylazetidine-3-carbonitrile] | 
25 | 8.00 to 8.82 |  | CNc1nc(Nc2ccc(-n3cnc(Cl)c3)c(OC)c2)nc2c1CCC2c1cc(F)c(F)c(F)c1 (racemic) [Example 103, N^2-(4-(4-chloro-1H-imidazol-1-yl)-3-methoxyphenyl)-N^4-methyl-7-(3,4,5-trifluorophenyl)-6,7-dihydro-5H-cyclopenta[d]pyrimidine-2,4-diamine] | 
26 | < 6.00 |  | CNc1nc(Nc2ccc(F)c(OC)c2)nc2c1CCC2c1ccccc1 (centres unmarked) [Example 222, N2-(4-fluoro-3-methoxyphenyl)-N4-methyl-7-phenyl-6,7-dihydro-5H-cyclopenta[d]pyrimidine-2,4-diamine] | 
27 |  | 7.00 to 8.00 | CNc1nc(Nc2ccc(-n3cnc(Cl)c3)c(OC)c2)nc2c1CCC2c1ccc(OC(F)(F)F)cc1 (single isomer, unassigned) [Example 97B, N^2-(4-(4-chloro-1H-imidazol-1-yl)-3-methoxyphenyl)-N^4-methyl-7-(4-(trifluoromethoxy)phenyl)-6,7-dihydro-5H-cyclopenta[d]pyrimidine-2,4-diamine] | 
28 | 7.00 to 8.00 |  | COc1cc(Nc2nc3c(c(N4C[C@@H]5C[C@H]4CO5)n2)CCC3c2ccc(F)cc2)ccc1-n1cnc(Cl)c1 (stereo partly drawn) [Example 18, 4-((1S,4S)-2-oxa-5-azabicyclo[2.2.1]heptan-5-yl)-N-(4-(4-chloro-1H-imidazol-1-yl)-3-methoxyphenyl)-7-(4-fluorophenyl)-6,7-dihydro-5H-cyclopenta[d]pyrimidin-2-amine] | 
29 |  | 8.00 to 8.82 | COc1cc(Nc2nc3c(c(N(C)C)n2)CCC3c2ccc(F)c(F)c2)ccc1-n1cnc(Cl)c1 (single isomer, unassigned) [Example 95A, N^2-(4-(4-chloro-1H-imidazol-1-yl)-3-methoxyphenyl)-7-(3,4-difluorophenyl)-N^4,N^4-dimethyl-6,7-dihydro-5H-cyclopenta[d]pyrimidine-2,4-diamine] | 
